Test results as given in patent publication US5401490A, “Markers of tissue hypoxia” (priority 1989, dated 1995).

Key:
EMT-6 cells = test: Toxicity to hypoxic EMT-6 cells (surviving fraction); assay type: cell-based, mouse; details: for time required to reduce the cell population by 90%: 37° C.; for selective toxicity to hypoxic EMT-6 tumor cells: in words
Experimental: This represents a cytosidal toxicity about 10× that of MISO under the same conditions.
EXAMPLE 9 TOXICITY STUDIES
EMT-6 mouse fibrosarcoma cells in stirred cultures, as described previously (5), were exposed to various concentrations of the test drugs under hypoxic conditions. Cells were removed at various intervals and the colony-forming ability was assessed by plating the cells in drug-free complete MEM with 10% fetal calf serum. The data were used to construct plots of surviving fraction of EMT-6 cells against time of incubation with test drug at various drug concentrations (FIG. 2) as in Jette (13).

[1] = Blood clearance and whole body elimination of radioactivity; assay type: in vivo, BALB/C mice; details: for major route of excretion: high kidney radioactivity at short time periods; for blood clearance / excretion of radioactivity from the body: i.v. bolus, ^125 I-labelled
Excerpt: Each data point represents the mean of 6 animals.
Tables 1 and 2 show the percent of injected IAZG and IAZA respectively per gram of wet tissue for selected tissues excised from BALB/C mice bearing EMT-6 tumors. This tumor model is known to have a high hypoxic fraction (0.33) (16). […] Hepatobiliary excretion may play a role in blood clearance as evidenced by elevated liver radioactivity and the appearance of activity in the intestine. Some oxidative or reductive metabolites of the 2-nitroimidazoles may also become bound to liver tissue, as was postulated in an in vivo study with ^14 C-MISO (6). This supposition is supported by the persistence of liver radioactivity at longer time periods. […] At 8 and 24 hours thyroid levels of IAZG are 7.2 and 30.9% of the total body activity and for IAZA they are 7.9 and 33.8% of total body activity.
EXAMPLE 11 TISSUE DISTRIBUTION AND EXCRETION
Tumor propagation of EMT-6 tumors in BALB/C mice was accomplished by subcutaneous injection of a cell suspension (10^5 cells in 0.1 mL) as described previously (10). Tumors reached about 10 mm in diameter (≈0.5 g) at 12 to 14 days, at which time each animal was given a bolus intravenous injection of ^125 I-labelled test drug via the tail vein (40 to 60 kBq in 0.1 mL). At set time periods the animals were asphyxiated with CO2 and exsanguinated via cardiac puncture. Tissues were dissected, weighed wet into vials and counted for ^125 I-activity. Whole-body activity was determined by summation of total activity in tissues and in residual carcass, and blood activity was determined from the blood aliquot, assuming blood to be 6.5% of the total body weight.

## O=[N+]([O-])c1nccn1[C@@H]1O[C@H](CI)[C@@H](O)[C@@H]1O [IAZA, 1-(5-iodo-5-deoxy-β-D-arabino-furanosyl)-2-nitroimidazole]
EMT-6 cells; 1.0 mM, hypoxic
  time required to reduce the cell population by 90%: 1.65 h
EMT-6 cells
  selective toxicity to hypoxic EMT-6 tumor cells: selective toxicity to hypoxic EMT-6 tumor cells
[1]
  major route of excretion: via the urine
  blood clearance: initial rapid blood clearance
  excretion of radioactivity from the body: rapid excretion of radioactivity from the body

## O=[N+]([O-])c1nccn1[C@@H]1O[C@H](CI)[C@H](O)[C@H](O)[C@H]1O [IAZG, 1-(6-iodo-6-deoxy-β-D-galactopyranosyl)-2-nitroimidazole]
EMT-6 cells; 1.0 mM, hypoxic
  time required to reduce the cell population by 90%: about 1.75 h
EMT-6 cells; 1.0 mM, hypoxic, same conditions
  cytosidal toxicity relative to MISO: about 10 ×
EMT-6 cells
  selective toxicity to hypoxic EMT-6 tumor cells: selective toxicity to hypoxic EMT-6 tumor cells
EMT-6 cells; oxic
  toxicity under oxic conditions: absence of toxicity under oxic conditions
[1]; blood and whole body, IAZG vs IAZA
  initial clearance rates, comparison: greater for IAZG than IAZA
[1]
  major route of excretion: via the urine
  blood clearance: initial rapid blood clearance
  excretion of radioactivity from the body: rapid excretion of radioactivity from the body
